Laboratory results published in US20140187548A1, “6 SUBSTITUTED IMIDAZOPYRAZINES FOR USE AS MPS-1 AND TKK INHIBITORS IN THE TREATMENT OF HYPERPROLIFERATIVE DISORDERS” (BAYER INTELLECTUAL PROPERTY GMBH, priority 2010, published 2014).

These molecules were tested against T1, human kinase Mps-1 (Homo sapiens, UniProt P33981) (assay: Mps-1 kinase assay (TR-FRET)). Conditions: N-terminally GST-tagged human full length recombinant Mps-1; 10 μM ATP; 1 μM peptide substrate; 15 min pre-incubation; 60 min at 22° C.
T1 construct: N-terminally GST-tagged human full length recombinant Mps-1 kinase; GST (N); purchased Invitrogen, Karslruhe, Germany PV4071
T1 sequence (P33981 1-857): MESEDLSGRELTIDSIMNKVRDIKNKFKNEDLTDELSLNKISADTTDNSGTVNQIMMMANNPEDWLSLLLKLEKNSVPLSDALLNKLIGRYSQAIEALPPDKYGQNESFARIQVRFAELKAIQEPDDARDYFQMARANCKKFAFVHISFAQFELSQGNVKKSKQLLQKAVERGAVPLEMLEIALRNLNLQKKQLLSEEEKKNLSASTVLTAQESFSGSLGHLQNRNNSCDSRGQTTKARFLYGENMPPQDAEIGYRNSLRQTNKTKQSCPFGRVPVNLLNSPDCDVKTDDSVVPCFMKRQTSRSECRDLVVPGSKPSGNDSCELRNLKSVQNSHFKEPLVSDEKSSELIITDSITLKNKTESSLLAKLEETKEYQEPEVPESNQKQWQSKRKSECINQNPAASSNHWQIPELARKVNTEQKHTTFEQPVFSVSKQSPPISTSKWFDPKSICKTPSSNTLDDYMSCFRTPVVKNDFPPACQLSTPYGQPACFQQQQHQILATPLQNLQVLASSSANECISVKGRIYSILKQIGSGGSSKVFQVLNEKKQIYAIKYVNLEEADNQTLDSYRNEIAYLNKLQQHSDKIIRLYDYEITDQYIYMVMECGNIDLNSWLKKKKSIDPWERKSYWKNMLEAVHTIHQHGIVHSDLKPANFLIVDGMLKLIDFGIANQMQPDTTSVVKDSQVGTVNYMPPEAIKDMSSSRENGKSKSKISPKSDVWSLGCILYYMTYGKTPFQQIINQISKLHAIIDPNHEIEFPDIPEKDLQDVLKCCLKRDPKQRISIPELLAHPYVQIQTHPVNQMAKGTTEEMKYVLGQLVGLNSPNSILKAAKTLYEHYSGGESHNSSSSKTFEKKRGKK
Type: biochemical
In short: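 TR-FRET read-out: after 1 h binding at 22° C, Eu-labelled anti-phospho-Ser/Thr antibody transfers to SA-XLent on the phosphorylated biotinylated peptide. The enzyme is GST-tagged full-length human Mps-1, typically about 1 nM final, in the linear range.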
Cc1cc(-c2cnc3c(NCC4CCC(C)(O)CC4)nc(-c4ccc(F)cc4)cn23)ccc1C(=O)NC1CC1 (stereo not shown) [Example 10-7, N-cyclopropyl-4-[6-(4-fluorophenyl)-8-{[(4-hydroxy-4-methylcyclo-hexyl)methyl]amino}imidazo[1,2-a]pyrazin-3-yl]-2-methylbenzamide] showed an IC50 of 5.4 nM.
COc1cc(OC)cc(-c2cn3c(-c4ccc(C(=O)NC5CC5)cc4)cnc3c(NCC(C)C)n2)c1 [Example 1-21, N-cyclopropyl-4-{6-(3,5-dimethoxyphenyl)-8-[(2-methylpropyl)amino]imidazo[1,2-a]pyrazin-3-yl}benzamide] gave an IC50 of 19 nM.
CC(C)CNc1nc(-c2cccc(C(N)=O)c2)cn2c(-c3ccc(C(=O)NC4CC4)cc3)cnc12 [Example 1-25, 4-{6-(3-carbamoylphenyl)-8-[(2-methylpropyl)amino]imidazo[1,2-a]pyrazin-3-yl}-N-cyclo-propylbenzamide] showed an IC50 of 1.2 nM.
For Cc1cc(-c2cnc3c(NCCCC(C)O)nc(-c4ccc(F)cc4)cn23)ccc1C(=O)NC1CC1 (stereo not shown) [Example 10-12, N-cyclopropyl-4-{6-(4-fluorophenyl)-8-[(4-hydroxypentyl)amino]imidazo[1,2-a]pyrazin-3-yl}-2-methylbenzamide], the IC50 was 7.1 nM.
Work on CC(=O)NCCNc1nc(-c2ccccc2)cn2c(-c3ccc(C(=O)NC4CC4)cc3)cnc12 [Example 2-19, 4-(8-{[2-(acetylamino)ethyl]amino}-6-phenylimidazo[1,2-a]pyrazin-3-yl)-N-cyclopropyl-benzamide] yielded an IC50 of 8.1 nM.
In the case of Cn1nccc1CNc1nc(-c2ccc(F)cc2)cn2c(-c3ccc(C(=O)NC4CC4)c(Cl)c3)cnc12 [Example 1-107, 2-chloro-N-cyclopropyl-4-[6-(4-fluorophenyl)-8-{[(1-methyl-1H-pyrazol-5-yl)methyl]amino}imidazo[1,2-a]pyrazin-3-yl]benzamide], the IC50 is reported as 13.2 nM.
With CC(C)CNc1nc(-c2cccc(C#N)c2)cn2c(-c3ccc(C(=O)NC4CC4)cc3)cnc12 [Example 1-72, 4-{6-(3-cyanophenyl)-8-[(2-methylpropyl)amino]imidazo[1,2-a]pyrazin-3-yl}-N-cyclo-propylbenzamide] the IC50 was 4.6 nM.
O=C(NC1CC1)c1ccc(-c2cnc3c(NCCCF)nc(-c4ccccc4)cn23)cc1 [Example 2-62, N-cyclopropyl-4-{8-[(3-fluoropropyl)amino]-6-phenylimidazo[1,2-a]pyrazin-3-yl}benzamide] was tested, and the IC50 was 1.1 nM.
For CC(C)CNc1nc(-c2cccc3cnccc23)cn2c(-c3ccc(C(=O)NC4CC4)cc3)cnc12 [Example 1-32, N-cyclopropyl-4-{6-(iso-quinolin-5-yl)-8-[(2-methylpropyl)amino]imidazo[1,2-a]pyrazin-3-yl}benzamide], the IC50 was 1.3 nM.
With CC(C)CNc1nc(-c2cccc(C(=O)N3CCCC3)c2)cn2c(-c3ccc(C(=O)NC4CC4)cc3)cnc12 [Example 1-54, N-cyclopropyl-4-{8-[(2-methylpropyl)amino]-6-[3-(pyrrolidin-1-yl-carbonyl)phenyl]imidazo [1,2-a]pyrazin-3-yl} benzamide] the IC50 was 6.2 nM.
In the case of CN(C)c1ccc(-c2cn3c(-c4ccc(C(=O)NC5CC5)c(Cl)c4)cnc3c(NCc3ccnn3C)n2)cc1 [Example 1-108, 2-chloro-N-cyclopropyl-4-(6-[4-(dimethylamino)phenyl]-8-{[(1-methyl-1H-pyrazol-5-yl)methyl]amino}imidazo [1,2-a]pyrazin-3-yl) benzamide], the IC50 is reported as 43.9 nM.
O=C(NC1CC1)c1ccc(-c2cnc3c(NCCCOC[C@@H](O)CO)nc(-c4ccccc4)cn23)cc1 [Example 9-1, N-cyclopropyl-4-{8-[(3-{[(2S)-2,3-dihydroxypropyl]oxy}propyl)amino]-6-phenylimidazo[1,2-a]pyrazin-3-yl}benzamide] was tested, and the IC50 was 3.4 nM.
O=C(NC1CC1)c1ccc(-c2cnc3c(NCc4ccc(F)cc4)nc(-c4ccccc4)cn23)cc1 [Example 2-14, N-cyclopropyl-4-{8-[(4-fluorobenzyl)amino]-6-phenylimidazo[1,2-a]pyrazin-3-yl}benzamide] showed an IC50 of 2.9 nM.
In the case of NCCCNc1nc(-c2ccccc2)cn2c(-c3ccc(C(=O)NC4CC4)cc3)cnc12 [Example 2-68], the IC50 is reported as 17.4 nM.
CC(C)CNc1nc(-c2cc(F)cc(F)c2)cn2c(-c3ccc(C(=O)NC4CC4)cc3)cnc12 [Example 1-60, N-cyclopropyl-4-{6-(3,5-difluorophenyl)-8-[(2-methylpropyl)amino]imidazo[1,2-a]pyrazin-3-yl}benzamide] gave an IC50 of 42.4 nM.
For CC(C)CNc1nc(-c2cccc(F)c2)cn2c(-c3ccc(C(=O)NC4CC4)cc3)cnc12 [Example 1-40, N-cyclopropyl-4-{6-(3-fluorophenyl)-8-[(2-methylpropyl)amino]imidazo[1,2-a]pyrazin-3-yl}benzamide], the IC50 was 6.9 nM.
CCN(CC)CCNc1nc(-c2ccccc2)cn2c(-c3ccc(C(=O)NC4CC4)cc3)cnc12 [Example 2-2, N-cyclopropyl-4-(8-{[2-(diethylamino)ethyl]amino}-6-phenylimidazo[1,2-a]pyrazin-3-yl)benzamide] was tested, and the IC50 was 47.7 nM.
In the case of CN(C)CCCCNc1nc(-c2ccccc2)cn2c(-c3ccc(C(=O)NC4CC4)cc3)cnc12 [Example 2-38, N-cyclopropyl-4-(8-{[4-(dimethylamino)butyl]amino}-6-phenylimidazo[1,2-a]pyrazin-3-yl)benzamide], the IC50 is reported as 13.2 nM.
In the case of O=C(NC1CC1)c1ccc(-c2cnc3c(NCCCC(F)(F)F)nc(-c4ccccc4)cn23)cc1 [Example 2-51, N-cyclopropyl-4-{6-phenyl-8-[(4,4,4-trifluorobutyl)amino]imidazo[1,2-a]pyrazin-3-yl}benzamide], the IC50 is reported as 2.4 nM.
CC(C)CNc1nc(C(C)C)cn2c(-c3ccc(C(=O)NC4CC4)cc3)cnc12 [Example 11-2, N-cyclopropyl-4-{8-[(2-methylpropyl)amino]-6-(propan-2-yl)imidazo[1,2-a]pyrazin-3-yl} benzamide] gave an IC50 of 7.1 nM.
In the case of COc1ccc2cc(-c3cn4c(-c5ccc(C(=O)NC6CC6)cc5)cnc4c(NCC(C)C)n3)ccc2c1 [Example 1-79, N-cyclopropyl-4-{6-(6-methoxynaphthalen-2-yl)-8-[(2-methylpropyl)amino]imidazo[1,2-a]pyrazin-3-yl}benzamide], the IC50 is reported as 32.7 nM.
In the case of Cn1nccc1CNc1nc(-c2ccc(F)cc2)cn2c(-c3ccc(C(=O)NC4CC4)c(F)c3)cnc12 [Example 1-119, N-cyclopropyl-2-fluoro-4-[6-(4-fluorophenyl)-8-{[(1-methyl-1H-pyrazol-5-yl)methyl]amino}imidazo[1,2-a]pyrazin-3-yl]benzamide], the IC50 is reported as 2.5 nM.
Work on Cc1cccc(-c2cn3c(-c4ccc(C(=O)NC5CC5)cc4)cnc3c(NCC(C)C)n2)c1 [Example 1-8, N-cyclopropyl-4-{6-(3-methylphenyl)-8-[(2-methylpropyl)amino]imidazo[1,2-a]pyrazin-3-yl}benzamide] yielded an IC50 of 4.9 nM.
For O=C(NC1CC1)c1ccc(-c2cnc3c(NCCN4CCCC4)nc(-c4ccccc4)cn23)cc1 [Example 2-25, N-cyclopropyl-4-(6-phenyl-8-{[2-(pyrrolidin-1-yl)ethyl]amino}imidazo[1,2-a]pyrazin-3-yl)benzamide], the IC50 was 27.4 nM.
For O=C(NC1CC1)c1ccc(-c2cnc3c(NCc4ccc(C(F)(F)F)cc4)nc(-c4ccccc4)cn23)cc1 [Example 2-20, N-cyclopropyl-4-(6-phenyl-8-{[4-(trifluoromethyl)benzyl]amino}imidazo[1,2-a]pyrazin-3-yl)benzamide], the IC50 was 38.6 nM.
